From US9572891B2, “Oligonucleotide conjugates” (Geron Corporation, priority 2001, dated 2017)
“And” between values parts separate entries of the source, which are not always exact repeats. Identical values can stand only once. Like-named read-outs stand apart in the source and are kept apart here.

Biological target: T1, telomerase (Homo sapiens, UniProt O14746)
T1 construct: made in house; host or cells: 293 cells over-expressing hTERT
Experiment: Bio-Tel FlashPlate telomerase inhibition assay
Assay type: biochemical
Procedure: Extracts used for screening telomerase inhibitors were routinely prepared from 293 cells over-expressing the protein catalytic subunit of telomerase (hTERT). […] 200 ml of packed cells (harvested from about 100 liters of culture) were resuspended in an equal volume of hypotonic buffer (10 mM Hepes pH 7.9, 1 mM MgCl2, 1 mM DTT, 20 mM KCl, 1 mM PMSF) and lysed using a dounce homogenizer. The glycerol concentration was adjusted to 10% and NaCl was slowly added to give a final concentration of 0.3 M. The lysed cells were stirred for 30 min and then pelleted at 100,000×g for 1 hr. Solid ammonium sulfate was added to the S100 supernatant to reach 42% saturation. The material was centrifuged; the pellet was resuspended in one fifth of the original volume and dialyzed against Buffer ‘A’ containing 50 mM NaCl. After dialysis the extract was centrifuged for 30 min at 25,000×g. Prior to affinity chromatography, Triton X-100™ (0.5%), KCl (0.3 M) and tRNA ([…]) were added. Affinity oligonucleotide (5′-biotinTEG-biotinTEG-biotinTEG-GTA GAC CTG TTA CCA guu agg guu ag 3′ [SEQ ID NO: 16]; lower case represents 2′ O-methyl ribonucleotides and upper case represents deoxynucleotides) was added to the extract (1 nmol per 10 ml of extract). After an incubation of 10 min at 30° C., Neutravidin beads (Pierce; 250 μl of a 50% suspension) were added and the mixture was rotated overnight at 4° C. The beads were pelleted and washed three times with Buffer ‘B’ containing 0.3 M KCl, twice with Buffer ‘B’ containing 0.6 M KCl, and twice more with Buffer B containing 0.3 M KCl. Telomerase was eluted in Buffer ‘B’ containing 0.3 M KCl, 0.15% Triton X-100™ and a 2.5 molar excess of displacement oligonucleotide (5′-CTAACCCTAACTGGTAACAGGTCTAC-3′ [SEQ ID NO: 17] at 0.5 ml per 125 μl of packed Neutravidin beads) for 30 min. at room temperature. A second elution was performed and pooled with the first. Purified extracts typically had specific activities of 10 fmol nucleotides incorporated/min/μl extract, or 200 nucleotides/min/mg total protein.
A suitable assay for detection and/or measurement of telomerase activity is based on a measurement of the addition of TTAGGG (SEQ ID NO. 8) telomeric repeats to a biotinylated telomerase substrate primer, a reaction catalyzed by telomerase. The biotinylated products are captured in streptavidin-coated microtiter plates. An oligonucleotide probe complementary to 3.5 telomere repeats labeled with ^33P is used for measuring telomerase products, as described below. Unbound probe is removed by washing and the amount of probe annealing to the captured telomerase products is determined by scintillation counting.
The data provided in Tables 1 and 2 below were obtained by performing the assay as described below: • 1. Oligonucleotide conjugates were stored as concentrated stocks and dissolved in PBS. • 2. For testing, the oligonucleotide conjugates were diluted to a 15× working stock in PBS and 2 μl was dispensed into two wells of a 96-well microtiter dish (assayed in duplicate). • 3. Telomerase extract was diluted to a specific activity of 0.04-0.09 fmol dNTP incorporated/min./μl in Telomerase Dilution Buffer and 18 μl added to each sample well to preincubate with compound for 30 minutes at room temperature. • 4. The telomerase reaction was initiated by addition of 10 μl Master Mix to the wells containing telomerase extract and oligonucleotide compound being tested. The plates were sealed and incubated at 37° C. for 90 min. • 5. The reaction was stopped by the addition of 10 μl HCS. • 6. 25 μl of the reaction mixture was transferred to a 96-well streptavidin-coated FlashPlate™ (NEN) and incubated for 2 hours at room temperature with mild agitation. • 7. The wells were washed three times with 180 μl 2×SSC without any incubation.
8. The amount of probe annealed to biotinylated telomerase products was detected in a scintillation counter.

[1] = Table 1, oligonucleotide has N3′→P5′ phosphoramidate (NP) internucleoside linkages, read-out: IC50 NP
[2] = Table 1, oligonucleotide has N3′→P5′ thio-phosphoramidate (NPS) internucleoside linkages, read-out: IC50 NPS
[3] = Table 2, oligonucleotide has N3′→P5′ thio-phosphoramidate (NPS) internucleoside linkages, read-out: IC50 NPS

T1 sequence (O14746 whole entry): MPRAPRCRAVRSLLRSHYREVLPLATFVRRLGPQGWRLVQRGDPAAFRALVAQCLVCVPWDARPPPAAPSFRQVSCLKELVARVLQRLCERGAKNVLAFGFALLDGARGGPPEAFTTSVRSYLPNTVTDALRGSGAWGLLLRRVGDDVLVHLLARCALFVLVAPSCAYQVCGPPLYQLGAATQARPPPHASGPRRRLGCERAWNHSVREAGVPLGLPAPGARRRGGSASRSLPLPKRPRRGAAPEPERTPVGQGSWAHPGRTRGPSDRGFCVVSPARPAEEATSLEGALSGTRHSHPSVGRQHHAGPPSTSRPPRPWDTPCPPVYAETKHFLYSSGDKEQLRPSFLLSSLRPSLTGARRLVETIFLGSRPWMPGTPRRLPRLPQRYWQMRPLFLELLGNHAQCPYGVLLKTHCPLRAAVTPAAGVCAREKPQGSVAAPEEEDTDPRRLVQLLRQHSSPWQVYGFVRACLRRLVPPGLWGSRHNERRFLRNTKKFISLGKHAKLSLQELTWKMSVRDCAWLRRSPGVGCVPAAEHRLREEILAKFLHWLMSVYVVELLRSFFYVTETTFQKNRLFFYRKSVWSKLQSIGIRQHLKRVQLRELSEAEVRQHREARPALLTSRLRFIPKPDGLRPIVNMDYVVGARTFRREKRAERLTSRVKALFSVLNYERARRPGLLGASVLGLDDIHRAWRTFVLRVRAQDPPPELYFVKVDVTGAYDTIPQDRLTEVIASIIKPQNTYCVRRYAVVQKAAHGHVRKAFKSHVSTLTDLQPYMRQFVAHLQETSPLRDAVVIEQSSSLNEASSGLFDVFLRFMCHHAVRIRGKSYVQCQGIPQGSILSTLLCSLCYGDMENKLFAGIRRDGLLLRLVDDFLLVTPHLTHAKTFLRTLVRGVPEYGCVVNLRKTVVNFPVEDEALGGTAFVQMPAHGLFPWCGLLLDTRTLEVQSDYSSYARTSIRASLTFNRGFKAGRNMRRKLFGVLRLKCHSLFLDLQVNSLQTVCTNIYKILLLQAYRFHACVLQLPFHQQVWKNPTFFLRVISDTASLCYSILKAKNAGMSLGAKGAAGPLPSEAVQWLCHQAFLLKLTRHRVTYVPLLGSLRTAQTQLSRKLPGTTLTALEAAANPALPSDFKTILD
T1 sequence (O60832 whole entry partner): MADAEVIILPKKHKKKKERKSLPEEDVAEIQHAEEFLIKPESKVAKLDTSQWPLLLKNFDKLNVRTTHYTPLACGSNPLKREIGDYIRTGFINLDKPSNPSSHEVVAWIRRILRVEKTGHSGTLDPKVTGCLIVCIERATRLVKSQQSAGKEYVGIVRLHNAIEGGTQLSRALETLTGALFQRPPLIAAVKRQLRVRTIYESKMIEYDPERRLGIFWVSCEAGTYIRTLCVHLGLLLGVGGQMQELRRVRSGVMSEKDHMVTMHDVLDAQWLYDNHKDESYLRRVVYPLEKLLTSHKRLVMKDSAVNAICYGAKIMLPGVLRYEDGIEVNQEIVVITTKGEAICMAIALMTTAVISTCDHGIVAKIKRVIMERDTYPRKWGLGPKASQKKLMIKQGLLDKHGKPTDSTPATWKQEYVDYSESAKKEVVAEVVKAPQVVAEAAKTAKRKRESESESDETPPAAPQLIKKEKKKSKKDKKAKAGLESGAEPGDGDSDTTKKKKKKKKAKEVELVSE
T1 sequence (Q9NPE3 whole entry partner): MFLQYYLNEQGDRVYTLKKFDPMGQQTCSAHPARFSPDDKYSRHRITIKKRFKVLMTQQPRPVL
T1 sequence (Q9NX24 whole entry partner): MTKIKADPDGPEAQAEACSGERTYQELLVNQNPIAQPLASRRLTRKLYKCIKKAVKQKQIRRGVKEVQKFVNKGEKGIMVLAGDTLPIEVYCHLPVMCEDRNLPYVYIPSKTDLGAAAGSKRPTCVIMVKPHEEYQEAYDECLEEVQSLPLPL
T1 sequence (Q9NY12 whole entry partner): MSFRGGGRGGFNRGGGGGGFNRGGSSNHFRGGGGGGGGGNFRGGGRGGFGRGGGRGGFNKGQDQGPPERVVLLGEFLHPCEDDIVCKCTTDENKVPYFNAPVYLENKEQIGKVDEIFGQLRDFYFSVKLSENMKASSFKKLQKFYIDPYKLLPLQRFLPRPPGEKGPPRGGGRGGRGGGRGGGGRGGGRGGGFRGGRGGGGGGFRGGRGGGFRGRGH

Sequence | IC50 [1] | IC50 [2] | IC50 [3]
GGGTTAG (unconjugated): unconjugated oligonucleotide GGGTTAG (SEQ ID: 6), tested with NP and with NPS internucleoside linkages | 0.6 µM | 0.009 µM and 0.005 µM and 0.01 µM and 0.008 µM | 0.009 µM and 0.005 µM and 0.01 µM
TTAGGG (unconjugated): unconjugated oligonucleotide TTAGGG (SEQ ID: 8), NP and NPS forms | 11 µM | 1.2 µM | 1.17 µM and 1 to 55 µM
GTTAGG (unconjugated): unconjugated oligonucleotide GTTAGG (SEQ ID: 7), NP and NPS forms | 0.47 µM | 0.12 µM | 
